Results reported in PMC4476799, “Englerin A Agonizes the TRPC4/C5 Cation Channels to Inhibit Tumor Cell Line Proliferation” (PLoS ONE, 2015).
Where two headings read alike, the source gives them in different places.

Test system: cancer cell lines from the cancer cell line encyclopedia (CCLE)
Assay: Cell line profiling (CLiP) proliferation experiment
Format: cell-based
Design: ACTIVITY_AREA: scale not given here; AMAX: unit not given here
Conditions: for IC50: read-out: Crossing Point; for EC50: read-out: Inflection Point
Method: Compound profiling experiment and data analysis was performed as previously described. Data was imported and plotted using the Tibco Spotfire DXP application. Lines were categorized as sensitive, intermediate and refractory as follows: Amax<-40 & Inflection Point <2 ~ Sensitive, Amax>-20 & Inflection Point >10 ~ Refractory, all else were called Intermediate. Cancer Cell line HG-U133 Plus 2 data was processed and normalized as described. […] Five sets of refractory cell lines were generated from the pool of refractory cell lines trying to match the lineage composition of the set of sensitive cell lines. The limma package was used as previously described to perform the statistical comparison.

[1] = CAS-1, central_nervous_system, astrocytoma_Grade_IV
[2] = CCK-81, large_intestine, adenocarcinoma
[3] = CCRF-CEM, haematopoietic_and_lymphoid_tissue, acute_lymphoblastic_T_cell_leukaemia
[4] = CFPAC-1, pancreas, ductal_carcinoma
[5] = CI-1, haematopoietic_and_lymphoid_tissue, B_cell_lymphoma_unspecified
[6] = CMK, haematopoietic_and_lymphoid_tissue, acute_myeloid_leukaemia
[7] = CMK-11-5, haematopoietic_and_lymphoid_tissue, acute_myeloid_leukaemia
[8] = CML-T1, haematopoietic_and_lymphoid_tissue, blast_phase_chronic_myeloid_leukaemia
[9] = COLO 205, large_intestine, adenocarcinoma
[10] = COLO 668, lung, small_cell_carcinoma
[11] = COLO 775, haematopoietic_and_lymphoid_tissue, chronic_myeloid_leukaemia
[12] = COLO-320, large_intestine, adenocarcinoma
[13] = COLO-680N, oesophagus, squamous_cell_carcinoma
[14] = COR-L23, lung, large_cell_carcinoma
[15] = COR-L47, lung, small_cell_carcinoma
[16] = COR-L88, lung, small_cell_carcinoma
[17] = COR-L279, lung, small_cell_carcinoma
[18] = Calu-6, lung, undifferentiated_carcinoma
[19] = Capan-1, pancreas, ductal_carcinoma
[20] = DBTRG-05MG, central_nervous_system, astrocytoma_Grade_IV
[21] = DK-MG, central_nervous_system, astrocytoma_Grade_IV
[22] = DLD-1, large_intestine, adenocarcinoma
[23] = DMS 114, lung, small_cell_carcinoma
[24] = DMS 273, lung, small_cell_carcinoma
[25] = Daoy, central_nervous_system, NS
[26] = Detroit 562, upper_aerodigestive_tract, NS
[27] = EFM-192A, cell line EFM-192A, breast
[28] = HCC1500, cell line HCC1500, breast

## CC(C)[C@@]12C[C@@H](O)[C@@](C)(O1)[C@@H]1CC[C@@H](C)[C@H]1[C@@H]2OC(=O)/C=C/c1ccccc1 [Englerin B]
524 cancer cell lines from the CCLE
  effect on proliferation of cancer cell lines: no cancer cell lines have their growth potently inhibited
A4/Fuk cells
  IC50: 18.1 µM
  EC50: 18.1 µM
ACC-MESO-1, ACC-MESO-1 cells
  IC50: > 30 µM
ACC-MESO-1, cell line ACC-MESO-1, pleura, NS
  IC50: > 30 µM
BDCM cells
  IC50: 16.9 µM
  EC50: 16.9 µM
BHY cells
  EC50: 9.33 µM
BICR 6 cells
  IC50: 23 µM
  EC50: 23 µM
BICR 22 cells
  EC50: 15 µM
CAL-78, bone, dedifferentiated
  IC50: > 30 µM
CAL-78 cells
  IC50: > 30 µM
CAMA-1, breast, NS
  ACTIVITY_AREA: 21.9
  AMAX: -43.81
  RESPONSE: INTERMEDIATE
[1]
  ACTIVITY_AREA: 8.27
  AMAX: -27.8
  RESPONSE: INTERMEDIATE
  IC50: > 30 µM
CAS-1 cells
  IC50: > 30 µM
[2]
  ACTIVITY_AREA: 19.43
  AMAX: -61.47
  RESPONSE: INTERMEDIATE
  IC50: 24.9 µM
  EC50: 24.9 µM
CCK-81 cells
  IC50: 24.9 µM
  EC50: 24.9 µM
[3]
  ACTIVITY_AREA: 12.38
  AMAX: -48.26
  RESPONSE: INTERMEDIATE
[4]
  ACTIVITY_AREA: 25.86
  AMAX: -50.08
  RESPONSE: INTERMEDIATE
CHL-1, skin, NS
  ACTIVITY_AREA: 19.98
  AMAX: -60.11
  RESPONSE: INTERMEDIATE
CHP-212, autonomic_ganglia, NS
  ACTIVITY_AREA: 33.44
  AMAX: -55.99
  RESPONSE: INTERMEDIATE
[5]
  ACTIVITY_AREA: 19.7
  AMAX: 16.67
  RESPONSE: REFRACTORY
  IC50: > 30 µM
[6]
  ACTIVITY_AREA: 61.63
  AMAX: -8.06
  RESPONSE: REFRACTORY
  IC50: > 30 µM
CMK-11-5, CMK-11-5, haematopoietic_and_lymphoid_tissue, acute_myeloid_leukaemia
  IC50: 24.1 µM
[7]
  ACTIVITY_AREA: 101.26
  AMAX: -51.95
  RESPONSE: INTERMEDIATE
CML-T1, CML-T1, haematopoietic_and_lymphoid_tissue, blast_phase_chronic_myeloid_leukaemia
  IC50: 17.9 µM
[8]
  ACTIVITY_AREA: 42.33
  AMAX: -73.13
  RESPONSE: INTERMEDIATE
[9]
  ACTIVITY_AREA: 33.02
  AMAX: -61.38
  RESPONSE: INTERMEDIATE
[10]
  ACTIVITY_AREA: 28.83
  AMAX: -55.03
  RESPONSE: INTERMEDIATE
COLO 699, COLO-699, lung, adenocarcinoma
  IC50: 3.62 µM
COLO 704, COLO-704, ovary, NS
  IC50: 6.82 µM
COLO 741, skin, NS
  ACTIVITY_AREA: 12.88
  AMAX: -37.55
  RESPONSE: INTERMEDIATE
[11]
  ACTIVITY_AREA: 59.22
  AMAX: -93.44
  RESPONSE: INTERMEDIATE
  IC50: 9.44 µM
  EC50: 9.31 µM
COLO 792, skin, NS
  ACTIVITY_AREA: 11.82
  AMAX: -22.14
  RESPONSE: INTERMEDIATE
  IC50: > 30 µM
  EC50: 16 µM
COLO 792 cells
  IC50: > 30 µM
  EC50: 16 µM
COLO 829, skin, NS
  ACTIVITY_AREA: 31.7
  AMAX: -7.17
  RESPONSE: REFRACTORY
[12]
  ACTIVITY_AREA: 102.29
  AMAX: -70.01
  RESPONSE: INTERMEDIATE
[13]
  ACTIVITY_AREA: 26.11
  AMAX: -34.59
  RESPONSE: INTERMEDIATE
COLO-699, lung, adenocarcinoma
  ACTIVITY_AREA: 153.56
  AMAX: -71.88
  RESPONSE: INTERMEDIATE
COLO-704, ovary, NS
  ACTIVITY_AREA: 138.81
  AMAX: -63.22
  RESPONSE: INTERMEDIATE
COLO-800, skin, NS
  ACTIVITY_AREA: 66.95
  AMAX: -43.63
  RESPONSE: INTERMEDIATE
[14]
  ACTIVITY_AREA: 32.4
  AMAX: -39.64
  RESPONSE: INTERMEDIATE
[15]
  ACTIVITY_AREA: 92.1
  AMAX: -15.76
  RESPONSE: REFRACTORY
[16]
  ACTIVITY_AREA: 20.83
  AMAX: -31.56
  RESPONSE: INTERMEDIATE
[17]
  ACTIVITY_AREA: 130.29
  AMAX: -86.84
  RESPONSE: INTERMEDIATE
COV318, COV318, ovary, NS
  IC50: 25.6 µM
  EC50: 25.6 µM
COV318, ovary, NS
  ACTIVITY_AREA: 39.59
  AMAX: -54.13
  RESPONSE: INTERMEDIATE
COV504, COV504, ovary, NS
  IC50: > 30 µM
COV504, cell line COV504 (ovary, NS)
  IC50: > 30 µM
COV504, ovary, NS
  ACTIVITY_AREA: 33.53
  AMAX: -45.79
  RESPONSE: INTERMEDIATE
COV644, ovary, NS
  ACTIVITY_AREA: 35.24
  AMAX: -28.86
  RESPONSE: INTERMEDIATE
  IC50: > 30 µM
  EC50: 3.05 µM
COV644 cells
  IC50: > 30 µM
  EC50: 3.05 µM
Calu-3, lung, adenocarcinoma
  ACTIVITY_AREA: 19.78
  AMAX: 4.65
  RESPONSE: REFRACTORY
[18]
  ACTIVITY_AREA: 28.42
  AMAX: -47.13
  RESPONSE: INTERMEDIATE
Caov-3, ovary, adenocarcinoma
  ACTIVITY_AREA: 128.76
  AMAX: -55.06
  RESPONSE: INTERMEDIATE
[19]
  ACTIVITY_AREA: 29.63
  AMAX: -25.75
  RESPONSE: INTERMEDIATE
Ci-1, CI-1 cells
  IC50: > 30 µM
DAN-G cells
  IC50: 29.3 µM
  EC50: 29.3 µM
DAN-G, pancreas, NS
  ACTIVITY_AREA: 26.93
  AMAX: -50.77
  RESPONSE: INTERMEDIATE
  IC50: 29.3 µM
  EC50: 29.3 µM
[20]
  ACTIVITY_AREA: 21.88
  AMAX: -30.64
  RESPONSE: INTERMEDIATE
[21]
  ACTIVITY_AREA: 33.27
  AMAX: -67.8
  RESPONSE: INTERMEDIATE
  IC50: 16.1 µM
  EC50: 12.5 µM
[22]
  ACTIVITY_AREA: 71.46
  AMAX: -59.67
  RESPONSE: INTERMEDIATE
[23]
  ACTIVITY_AREA: 21.61
  AMAX: -57.16
  RESPONSE: INTERMEDIATE
[24]
  ACTIVITY_AREA: 29.68
  AMAX: -73.92
  RESPONSE: INTERMEDIATE
[25]
  ACTIVITY_AREA: 43
  AMAX: -39.21
  RESPONSE: INTERMEDIATE
[26]
  ACTIVITY_AREA: 35.45
  AMAX: -46.18
  RESPONSE: INTERMEDIATE
[27]
  IC50: 22.9 µM
  EC50: 22.9 µM
EFM-192A, cell line EFM-192A
  EC50: 22.9 µM
GP2d, cell line GP2d, large_intestine
  IC50: > 30 µM
GP2d, cell line GP2d
  IC50: > 30 µM
HCC15, cell line HCC-15, lung
  IC50: 15.5 µM
HCC366, cell line HCC-366, lung
  IC50: > 30 µM
HCC366, cell line HCC-366
  IC50: > 30 µM
HCC1171, cell line HCC-1171, lung
  IC50: 26.9 µM
[28]
  IC50: > 30 µM
  EC50: 8.24 µM
HCC1500, cell line HCC1500
  IC50: > 30 µM
HEC-6, cell line HEC-6, endometrium
  IC50: > 30 µM
HEC-6, cell line HEC-6
  IC50: > 30 µM
HEC-50B, cell line HEC-50B, endometrium
  IC50: > 30 µM
